The text below walks through data of patent publication US20180081270A1, “RADIATION-SENSITIVE COMPOSITION, AMORPHOUS FILM, AND METHOD FOR FORMING RESIST PATTERN” (Mitsubishi Gas Chemical Company, Inc., priority 2015, published 2018).

Data set [1] is described as follows: 10% thermal reduction temperature by thermogravimetry (TG). Type of data set: physicochemical. The note with it: 10° C./min to 500° C., nitrogen gas stream. As for the experimental part:
“EXSTAR 6000 DSC apparatus” manufactured by SII NanoTechnology Inc. was used. About 5 mg of a sample was placed in an unsealed container made of aluminum, and the temperature was raised to 500° C. at a temperature increase rate of 10° C./min in a nitrogen gas (30 mL/min) stream. In this operation, 10% thermal reduction temperature was measured.

A short description of data set [2]: Solubility in PGME and PGMEA at 23° C. Type of data set: physicochemical. The note with it: for solubility in PGME and PGMEA (dissolution amount): 1-methoxy-2-propanol (PGME) and propylene glycol monomethyl ether acetate (PGMEA). The method, then:
The dissolution amount of the compound in 1-methoxy-2-propanol (PGME) and propylene glycol monomethyl ether acetate (PGMEA) was measured at 23° C., and the results were evaluated according to the following criteria.
Evaluation A: 20% by mass or more Evaluation B: 10% by mass or more and less than 20% by mass Evaluation C: less than 10% by mass

On to `COc1cc(C(c2cc(-c3ccc(O)cc3)ccc2O)c2cc(-c3ccc(O)cc3)ccc2O)cc(O)c1I` [BiF-I-2], for which the “10% thermal reduction temperature” value in data set [1] is at least 400 °C. In data set [2], the “solubility in PGME and PGMEA (dissolution amount)” value (“solubility … (dissolution amount)” for short) is reported as at least 30 % by mass; the “solubility in PGME and PGMEA (evaluation)” value (from here on “solubility … (evaluation)”) is on record as “A (Evaluation A: 20% by mass or more)”.
Turning to `Oc1ccc(-c2ccc(O)c(C(c3ccc(I)cc3)c3cc(-c4ccc(O)cc4)ccc3O)c2)cc1` [BiF-I-1], in data set [1], the “10% thermal reduction temperature” value is at least 400 °C. Further, in data set [2], the “solubility … (dissolution amount)” value was at least 30 % by mass; the “solubility … (evaluation)” value was “A (Evaluation A: 20% by mass or more)”.
With `Oc1ccc(-c2ccc(O)c(C(c3cccc(I)c3)c3cc(-c4ccc(O)cc4)ccc3O)c2)cc1` [BiF-I-3], the “10% thermal reduction temperature” value in data set [1] is at least 300 °C. Also, in data set [2], the “solubility … (dissolution amount)” value was at least 30 % by mass; the “solubility … (evaluation)” value is recorded as “A (Evaluation A: 20% by mass or more)”.
